Like-named read-outs stand apart in the source and are kept apart here.
Legend:
[1] = test system: α-amylase; test: α-Amylase inhibition (anti-diabetic); format: biochemical; settings: equal concentrations (1000 µg/mL); mean ± SE
[2] = test system: α-glucosidase; test: α-Glucosidase inhibition (anti-diabetic); format: biochemical; settings: equal concentrations (1000 µg/mL); mean ± SE
[3] = biological target: acetylcholinesterase (AChE) (Homo sapiens, UniProt P22303); test: biochemical; settings: same concentration (1000 µg/mL); mean ± SE
[4] = biological target: bovine serum albumin (BSA) (Bos taurus, UniProt P02769); settings: equal concentrations (1000 µg/mL); mean ± SE
[5] = test system: proteinase enzyme (trypsin); test: Proteinase enzyme inhibition (anti-inflammatory); format: biochemical; settings: equal concentrations (1000 µg/mL); mean ± SE
[6] = test system: human colon cancer (Caco-2) cell line; test: cells; format: cell-based; settings: for IC50: Homo sapiens, read-out: Cytotoxic activity IC50, Colon (Caco-2)
[7] = Cytotoxic activity, MTT assay, normal lung (WI-38); format: cell-based; settings: human
[8] = test system: caspase-3; test: Caspase-3 ELISA in treated A549 cells; format: cell-based, human; settings: DMSO control 85.92 ± 0.12
[9] = test system: Bcl-2; test: Bcl-2 ELISA in treated A549 cells; format: cell-based, human; settings: DMSO control 9.83 ± 0.05
[10] = test system: caspase-3; test: Caspase-3 ELISA in treated Caco-2 cells; format: cell-based, human; settings: DMSO control 97.06 ± 0.14
[11] = test system: Bcl-2; test: Bcl-2 ELISA in treated Caco-2 cells; format: cell-based, human; settings: DMSO control 7.99 ± 0.08
[12] = Iron-reducing power (IRP); settings: equal concentrations (1000 µg/mL); mean ± SE, three replicates
Method: (§1) All in vitro biological activities were assessed in the tested compounds at equal concentrations (1000 µg/mL). All assays were carried out in triplicate.
In vitro biological activities
(§2) The total antioxidant capacity (TAC) was determined by analyzing the green phosphate/Mo5+ complex at a wavelength (λ) of 695 nm, following the procedure described by Prieto
(§3) et al. Samples (at each concentration) were mixed with a reagent solution containing 0.3 N sulfuric
(§4) acid, 28 mM sodium phosphate, and 4 mM ammonium molybdate. Methanol (80%) was used in place
(§5) of the sample for the blank. The tubes were sealed and incubated in a boiling water bath for 90
(§6) minutes. After cooling to room temperature, the absorbance was measured at 695 nm against the
(§7) blank. Ascorbic acid was used at the same concentrations as a standard. The antioxidant capacity was
(§8) expressed as mg gallic acid equivalent per gram weight.
(§9) The iron reducing power was determined as µg/mL using the method proposed by Oyaizu
(§10) In brief, 1ml of the tested sample (at each concentration) was combined with 1mL of 200mM
(§11) sodium phosphate buffer (pH 6.6) and 1mL of 1% potassium ferricyanide. The mixture was then
(§12) incubated at 50°C for 20 minutes, followed by the addition of 1mL of trichloroacetic acid (10%). After
(§13) centrifugation at 2000rpm for 10 minutes, the upper layer solution (2.5 mL) was mixed with 2.5 mL of double deionized water and 1mL of fresh ferric chloride (0.1%). The absorbance was measured at
(§14) 700nm against a blank prepared without the sample. Ascorbic acid was used at the same
(§15) concentrations as a standard. A high absorbance at 700nm indicates a higher reducing power in the
(§16) The 1,1-Diphenyl-2-picryl-hydrazyl (DPPH) radical scavenging activities were evaluated using the method described by Rahman et al. An antioxidant substance capable of donating a
(§17) hydrogen atom to a solution containing DPPH- can reduce the stable free radical, causing the solution
(§18) to change color from violet to pale yellow. The remaining DPPH- radical was quantified by
(§19) nm using a spectroscopic method. Two milliliters of a DPPH solution (100 µM) in ethanol were mixed
(§20) with 2 mL of the sample (at each concentration). The reaction mixture for each concentration was
(§21) thoroughly vortexed and then incubated in the dark at room temperature for 30 minutes. The
(§22) absorbance was then measured spectrophotometrically at 518 nm against a blank (ethanol). For the
(§23) control, 2 mL of ethanol was added instead of the sample and run simultaneously with the test.
(§24) Ascorbic acid was used at the same concentrations as a positive control. Percent inhibition of the
(§25) DPPH free radical was calculated. The median inhibitory concentration (IC 50) for each tested
(§26) The procedure for the 2,2'-azinobis-(3-ethylbenzothiazoline-6-sulfonic acid) (ABTS) assay
(§27) potassium persulfate solution (2.4 mM). The working solution was prepared by mixing the two stock
(§28) solutions in equal quantities and allowing them to react at room temperature in a dark place for 14
(§29) hours. The solution was then diluted by mixing 1 mL of ABTS solution with 60 mL of methanol to
(§30) was prepared for each assay. The tested samples (at each concentration) were allowed to react with 1
(§31) mL of the ABTS solution, and the absorbance was taken at 734 nm after 7 minutes using a
(§32) spectrophotometer. The ABTS scavenging capacities of the samples were compared with that of
(§33) ascorbic acid (at the same concentrations).

[13] = ABTS radical scavenging assay; settings: equal concentrations (1000 µg/mL); mean ± SE
Method: as §1
In vitro biological activities
as §2, §3, §4, §5, §6, §7, §8, §9, §10, §11, §12, §13, §14, §15, §16, §17, §18, §19, §20, §21, §22, §23, §24, §25, §26, §27, §28, §29, §30, §31, §32, §33

[14] = DPPH radical-scavenging activity; settings: read-out: DPPH (IC50); mean ± SE, three replicates
Method: In vitro biological activities
as §16, §17, §18, §19, §20, §21, §22, §23, §24, §25

[15] = test system: human lung cancer (A549) cell line; test: Cytotoxic activity, MTT assay, lung (A549); settings: for IC50: Homo sapiens, A549, 48 h, read-out: Cytotoxic activity IC50, Lung (A549)
Method: (§34) It will be assayed against human lung cancer (A549) and colon (Caco-2) cell line in
(§35) comparison with normal lung (WI-38) cell line using 3-(4,5-dimethythiazol-2-yl)-2,5-diphenyl
(§36) tetrazolium bromide (MTT) assay by determining the optical density (OD) at 570 nm according to the
(§37) The cells were dispensed in a 96-well sterile microplate (3
(§38) µL of each compound or doxorubicin (positive control, in DMSO) for 48 h in a serum free medium
(§39) prior to the MTT assay. Subsequently, the media were carefully removed, and 40 µL of MTT (2.5
(§40) mg/mL) was added to each well and then incubated for an additional 4 h. Purple formazan dye
(§41) crystals were solubilized by the addition of 200 µL of DMSO. The absorbance was measured at 570 nm using a SpectraMax Paradigm Multi-Mode microplate reader. The relative cell viability was
(§42) experiments were conducted in triplicate. Percent of the cell-growth inhibition (%) and the IC 50 was
(§43) calculated using IC 50 calculation software. The concentrations used for calculating the IC 50 depend on

[16] = Total antioxidant capacity (TAC), phosphomolybdenum method; settings: equal concentrations (1000 µg/mL); mean ± SE, three replicates
Method: as §1
In vitro biological activities
as §2, §3, §4, §5, §6, §7, §8, §9, §10, §11, §12, §13, §14, §15, §16, §17, §18, §19, §20, §21, §22, §23, §24, §25, §26, §27, §28, §29, §30, §31, §32, §33

[17] = test system: human lung cancer (A549) cell line; settings: 48 h
Method: as §34, §35, §36, §37, §38, §39, §40, §41, §42, §43

[18] = Conc.: 5a 13.45, 5d 12.64, 5e 12.29, 5f 11.81, 7a 12.72, 7f 11.24, DOX 11.50
[19] = Conc.: 5a 26.91, 5d 25.27, 5e 24.58, 5f 23.63, 7a 25.43, 7f 22.48, DOX 23.00
[20] = Conc.: 5a 53.81, 5d 50.55, 5e 49.15, 5f 47.26, 7a 50.86, 7f 44.96, DOX 46.00
[21] = Conc.: 5a 107.63, 5d 101.09, 5e 98.31, 5f 94.51, 7a 101.72, 7f 89.93, DOX 91.99
[22] = Conc.: 5a 215.26, 5d 202.19, 5e 196.61, 5f 189.03, 7a 203.44, 7f 179.85, DOX 183.99

Chain of acetylcholinesterase (AChE) (P22303 32-614, species assumed): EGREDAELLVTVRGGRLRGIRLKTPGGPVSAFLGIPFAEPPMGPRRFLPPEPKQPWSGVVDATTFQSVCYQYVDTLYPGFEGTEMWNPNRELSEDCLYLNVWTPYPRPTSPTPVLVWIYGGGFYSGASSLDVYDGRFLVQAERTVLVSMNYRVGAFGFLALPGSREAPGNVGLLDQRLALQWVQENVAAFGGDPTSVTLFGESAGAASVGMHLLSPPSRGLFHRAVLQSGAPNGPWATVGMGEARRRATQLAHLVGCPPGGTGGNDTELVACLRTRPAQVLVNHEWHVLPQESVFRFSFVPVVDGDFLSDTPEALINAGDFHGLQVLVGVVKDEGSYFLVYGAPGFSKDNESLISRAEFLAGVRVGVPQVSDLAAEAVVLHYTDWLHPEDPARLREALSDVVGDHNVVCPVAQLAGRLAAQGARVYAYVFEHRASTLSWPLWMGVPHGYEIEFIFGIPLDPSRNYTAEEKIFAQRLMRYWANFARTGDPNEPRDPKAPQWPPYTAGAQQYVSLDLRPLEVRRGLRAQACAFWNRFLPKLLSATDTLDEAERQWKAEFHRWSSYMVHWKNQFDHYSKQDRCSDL
Chain of bovine serum albumin (BSA) (P02769 25-607): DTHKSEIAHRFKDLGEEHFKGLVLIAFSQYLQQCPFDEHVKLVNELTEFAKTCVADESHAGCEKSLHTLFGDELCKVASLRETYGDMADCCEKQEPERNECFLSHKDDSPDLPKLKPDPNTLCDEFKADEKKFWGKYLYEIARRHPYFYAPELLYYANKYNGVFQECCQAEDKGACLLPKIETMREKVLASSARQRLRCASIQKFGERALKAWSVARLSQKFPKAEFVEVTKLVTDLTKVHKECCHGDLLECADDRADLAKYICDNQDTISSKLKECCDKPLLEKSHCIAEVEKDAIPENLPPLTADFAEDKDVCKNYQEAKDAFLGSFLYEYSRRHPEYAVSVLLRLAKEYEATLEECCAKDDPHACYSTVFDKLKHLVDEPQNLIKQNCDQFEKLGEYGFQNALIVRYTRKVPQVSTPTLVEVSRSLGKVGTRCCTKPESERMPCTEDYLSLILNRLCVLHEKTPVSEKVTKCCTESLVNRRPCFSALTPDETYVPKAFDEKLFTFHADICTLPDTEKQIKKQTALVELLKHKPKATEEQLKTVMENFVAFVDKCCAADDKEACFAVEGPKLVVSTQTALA

With COc1ccc(Nc2n[nH]c(N=Cc3c(C)n(C)n(-c4ccccc4)c3=O)c2C(=O)Nc2ccc(Cl)cc2)cc1 [7f] the “Inhibition (%) α-Amylase” value [1] was 32.31 ± 0.05%, the “Inhibition (%) α-Glucosidase” value [2] was 27.79 ± 0.05% and the “Inhibition (%) Acetylcholinesterase” value [3] was 62.00 ± 0.04%. The inhibition at 1000 µg/mL [3] was 62.11 ± 0.04%, the “Inhibition (%) Protein Denaturation” value [4] was 27.75 ± 0.03% and the “Inhibition (%) Proteinase” value [5] was 24.13 ± 0.03%. The “Viability %, Caco-2, 1st concentration” value [6, 18] was 81.68%, the “Viability %, Caco-2, 2nd concentration” value [6, 19] was 73.16% and the “Viability %, Caco-2, 3rd concentration” value [6, 20] was 54.13%. The “Viability %, Caco-2, 4th concentration” value [6, 21] was 31.97%, the “Viability %, Caco-2, 5th concentration” value [6, 22] was 24.59% and the IC50 ([6]; Caco-2, 48 h, MTT, mean ± SE) was 49.01 ± 0.24 µM. For the same compound, the “Therapeutic Index (TI), Colon (Caco-2)” value ([6]; IC50 on normal cells (WI-38)/IC50 on Caco-2) was 11.06, the viability at 48 h ([7]; WI-38 normal lung cells, Conc. as printed: 5a 53.81, 5d 50.55, 5e 49.15, 5f 47.26, 7a 50.86, 7f 44.96, DOX 46.00, read-out: Viability %, WI-38, 3rd concentration) was 79.3% and the viability at 48 h ([7]; WI-38 normal lung cells, Conc. as printed: 5a 107.63, 5d 101.09, 5e 98.31, 5f 94.51, 7a 101.72, 7f 89.93, DOX 91.99, read-out: Viability %, WI-38, 4th concentration) was 73.3%. It also gave a viability at 48 h ([7]; WI-38 normal lung cells, Conc.: 5a 13.45, 5d 12.64, 5e 12.29, 5f 11.81, 7a 12.72, 7f 11.24, DOX 11.50, read-out: Viability %, WI-38, 1st concentration) of 95.2%, a viability at 48 h ([7]; WI-38 normal lung cells, Conc.: 5a 26.91, 5d 25.27, 5e 24.58, 5f 23.63, 7a 25.43, 7f 22.48, DOX 23.00, read-out: Viability %, WI-38, 2nd concentration) of 87.2% and a viability at 48 h ([7]; WI-38 normal lung cells, Conc.: 5a 215.26, 5d 202.19, 5e 196.61, 5f 189.03, 7a 203.44, 7f 179.85, DOX 183.99, read-out: Viability %, WI-38, 5th concentration) of 59.2%. The IC50 at 48 h ([7]; WI-38 normal lung cells, 48 h, MTT, mean ± SE, read-out: Cytotoxic activity IC50, Normal Lung (WI-38)) was 543 ± 8.52 µM, the “Caspase-3 level, Lung (A549)” value [8] was 244.88 ± 0.34 pg/mL and the “Bcl-2 level, Lung (A549)” value [9] was 3.45 ± 0.02 ng/mL. The “Caspase-3 level, Colon (Caco-2)” value [10] was 276.62 ± 0.41 pg/mL, the “Bcl-2 level, Colon (Caco-2)” value [11] was 2.80 ± 0.03 ng/mL and the “Iron-Reducing Power (IRP)” value [12] was 35.45 ± 0.07 µg/mL. For the same compound, the “ABTS (%) inhibition” value [13] was 78.05 ± 0.05%, the IC50 [14] was 21.37 ± 0.01 µM and the “Viability %, A549, 1st concentration” value [15, 18] was 96.21%. The “Viability %, A549, 2nd concentration” value [15, 19] was 86.06%, the “Viability %, A549, 3rd concentration” value [15, 20] was 59.66% and the “Viability %, A549, 4th concentration” value [15, 21] was 45.23%. The “Viability %, A549, 5th concentration” value [15, 22] was 18.95%, the IC50 [15] was 55.74 ± 0.24 µM and the “Total Antioxidant Capacity (TAC)” value [16] was 54.04 ± 0.20 mg Gallic Acid/g.
For COc1cccc2c1C(=O)c1c(O)c3c(c(O)c1C2=O)C[C@@](O)(C(=O)CO)C[C@@H]3O[C@H]1C[C@H](N)[C@H](O)[C@H](C)O1 [Doxorubicin, reference compound], the “Therapeutic Index (TI), Colon (Caco-2)” value ([6]; Caco-2) was 5.55, the IC50 ([6]; Caco-2, 48 h) was 54.94 ± 0.16 µM and the “Viability %, Caco-2, 1st concentration” value ([6]; human, Caco-2, 48 h) was 72.32%. For the same compound, the “Viability %, Caco-2, 2nd concentration” value ([6]; human, Caco-2, 48 h) was 50.77%, the “Viability %, Caco-2, 3rd concentration” value ([6]; human, Caco-2, 48 h) was 41.86% and the “Viability %, Caco-2, 4th concentration” value ([6]; human, Caco-2, 48 h) was 23.02%. The “Viability %, Caco-2, 5th concentration” value ([6]; human, Caco-2, 48 h) was 20.05%, the IC50 at 48 h [7] was 305 ± 4.72 µM and the viability at 48 h ([7]; Viability %, WI-38, 1st concentration) was 77.5%. The viability at 48 h ([7]; Viability %, WI-38, 2nd concentration) was 69.1%, the viability at 48 h ([7]; Viability %, WI-38, 3rd concentration) was 62.3% and the viability at 48 h ([7]; Viability %, WI-38, 4th concentration) was 52.7%. For the same compound, the viability at 48 h ([7]; Viability %, WI-38, 5th concentration) was 38.5%, the “Caspase-3 level, Lung (A549)” value [8] was 330.80 ± 0.46 pg/mL and the “Bcl-2 level, Lung (A549)” value [9] was 2.55 ± 0.01 ng/mL. The “Viability %, A549, 1st concentration” value [17] was 80.86%, the “Viability %, A549, 2nd concentration” value [17] was 69.31% and the “Viability %, A549, 3rd concentration” value [17] was 36.91%. The “Viability %, A549, 4th concentration” value [17] was 18.92%, the “Viability %, A549, 5th concentration” value [17] was 11.20% and the IC50 [15] was 36.45 ± 0.16 µM.

From publication PMC11125359 (Pharmaceuticals, 2024)
